Measurements from publication PMC11035696, “Prospective de novo drug design with deep interactome learning” (Nature Communications, 2024).
“Also recorded” adds a separate entry of the source.

Key:
[1] = test system: cytochrome P450 isoenzymes (Cyp3A4, Cyp1A2, Cyp2B6, Cyp2C9, Cyp2D6, Cyp2C19, Cyp2C8); assay: CYP inhibition, summary over seven isoenzymes; type: in vitro ADME; conditions: dose-response experiments up to 20 μM, result in words
Protocol: SI11Absorption Distribution Metabolism and Excretion and Toxicity Data
To assess the drug-like characteristics of the newly designed PPAR modulators, a series of tests were conducted covering various aspects of absorption, distribution, metabolism, and excretion (ADME) properties. Specifically, these assessments included the parallel artificial membrane permeability assay (PAMPA) with permeation co- […]
efficients ([…]), LogD measurements, microsomal clearance, hepatocyte clearance, P-glycoprotein (Pgp) efflux ratio and binding and the unbound free fraction. Furthermore, the evaluation of inhibition po-tential against cytochrome P450 isoenzymes (CYP) proteins was investigated. For seven selected CYP proteins (i.e., Cyp3A4, Cyp1A2, Cyp2B6, Cyp2C9, Cyp2D6, Cyp2C19, and Cyp2C8) the half maximal inhibitory con-centration (IC50) was determined. (Table S15). […]
activity in the CYP assays was found.
Table S14: Absorption distribution metabolism and excretion (ADME) properties of compounds 1 and 2. […]
The values for microsomal clearance and CYP-inhibition represent single point measurements. […]
Molecule Enzyme Substrate IC50 (µM) […]

HISTAMINE H3 RECEPTOR = HISTAMINE H3 RECEPTOR (Homo sapiens, UniProt Q9Y5N1); assay: Safety off-target panel, binding; conditions: single point
Text: (§1) Table S9-S12 list all targets, their species, inhibition (%) and assay type for the experiments conducted in the
(§2) off-targets. […] The numbers for mean
(§3) inhibition (%) represent single point measurements.
(§4) off-targets. […] The numbers for
(§5) mean inhibition (%) represent single point measurements.

HISTAMINE H1 RECEPTOR = HISTAMINE H1 RECEPTOR (Homo sapiens, UniProt P35367); assay: Safety off-target panel, binding; conditions: single point
Text: as §1, §2, §3, §4, §5

SEROTONIN TRANSPORTER = SEROTONIN TRANSPORTER (Homo sapiens, UniProt P31645); assay: Safety off-target panel, binding; conditions: single point
Text: as §1, §2, §3, §4, §5

5HT1A = 5HT1A (Homo sapiens, UniProt P08908); assay: Safety off-target panel, binding; conditions: single point
Text: as §1, §2, §3, §4, §5

5HT3 = 5HT3 (Homo sapiens, UniProt P46098); assay: Safety off-target panel, binding; conditions: single point
Text: as §1, §2, §3, §4, §5

β1-ADRENOCEPTOR = β1-ADRENOCEPTOR (Homo sapiens, UniProt P08588); assay: Safety off-target panel, binding; conditions: single point
Text: as §1, §2, §3, §4, §5

ANDROGEN RECEPTOR = ANDROGEN RECEPTOR (Homo sapiens, UniProt P10275); assay: Safety off-target panel, binding; conditions: single point
Text: as §1, §2, §3, §4, §5

alpha1A-ADRENOCEPTOR = alpha1A-ADRENOCEPTOR (Homo sapiens, UniProt P35348); assay: Safety off-target panel, binding; conditions: single point
Text: as §1, §2, §3, §4, §5

CANNABINOID RECEPTOR CB1 = CANNABINOID RECEPTOR CB1 (Homo sapiens, UniProt P21554); assay: Safety off-target panel, binding; conditions: single point
Text: as §1, §2, §3, §4, §5

[2] = biological target: NOREPINEPHRINE TRANSPORTER (Homo sapiens, UniProt P23975); assay: Safety off-target panel, binding; conditions: single point
Text: as §1, §2, §3, §4, §5

κ OPIOID RECEPTOR = κ OPIOID RECEPTOR (Homo sapiens, UniProt P41145); assay: Safety off-target panel, binding; conditions: single point
Text: as §1, §2, §3, §4, §5

ESTROGEN RECEPTOR α = ESTROGEN RECEPTOR α (Homo sapiens, UniProt P03372); assay: Safety off-target panel, binding; conditions: single point
Text: as §1, §2, §3, §4, §5

MUSCARINIC RECEPTOR M2 = MUSCARINIC RECEPTOR M2 (Homo sapiens, UniProt P08172); assay: Safety off-target panel, binding; conditions: single point
Text: as §1, §2, §3, §4, §5

µ OPIOID RECEPTOR = µ OPIOID RECEPTOR (Homo sapiens, UniProt P35372); assay: Safety off-target panel, binding; conditions: single point
Text: as §1, §2, §3, §4, §5

[3] = biological target: ANGIOTENSIN II RECEPTOR 1 (Homo sapiens, UniProt P30556); assay: Safety off-target panel, binding; conditions: single point
Text: as §1, §2, §3, §4, §5

PROSTAGLANDIN F RECEPTOR = PROSTAGLANDIN F RECEPTOR (Homo sapiens, UniProt P43088); assay: Safety off-target panel, binding; conditions: single point
Text: as §1, §2, §3, §4, §5

5HT2B = 5HT2B (Homo sapiens, UniProt P41595); assay: Safety off-target panel, binding; conditions: single point
Text: as §1, §2, §3, §4, §5

β2-ADRENOCEPTOR = β2-ADRENOCEPTOR (Homo sapiens, UniProt P07550); assay: Safety off-target panel, binding; conditions: single point
Text: as §1, §2, §3, §4, §5

[4] = biological target: NICOTINIC RECEPTOR, MUSCLE (Homo sapiens, UniProt P02708+P07510+P11230+Q07001); assay: Safety off-target panel, binding; conditions: single point
Text: as §1, §2, §3, §4, §5

ADENOSINE A3 RECEPTOR = ADENOSINE A3 RECEPTOR (Homo sapiens, UniProt P0DMS8); assay: Safety off-target panel, binding; conditions: single point
Text: as §1, §2, §3, §4, §5

HISTAMINE H2 RECEPTOR = HISTAMINE H2 RECEPTOR (Homo sapiens, UniProt P25021); assay: Safety off-target panel, binding; conditions: single point
Text: as §1, §2, §3, §4, §5

5HT2A = 5HT2A (Homo sapiens, UniProt P28223); assay: Safety off-target panel, binding; conditions: single point
Text: as §1, §2, §3, §4, §5

MUSCARINIC RECEPTOR M1 = MUSCARINIC RECEPTOR M1 (Homo sapiens, UniProt P11229); assay: Safety off-target panel, binding; conditions: single point
Text: as §1, §2, §3, §4, §5

α2A-ADRENOCEPTOR = α2A-ADRENOCEPTOR (Homo sapiens, UniProt P08913); assay: Safety off-target panel, binding; conditions: single point
Text: as §1, §2, §3, §4, §5

PPARγ = PPARγ (Homo sapiens, UniProt P37231); assay: Safety off-target panel, binding; conditions: single point
Text: as §1, §2, §3, §4, §5

Chain of κ OPIOID RECEPTOR (P41145 whole entry): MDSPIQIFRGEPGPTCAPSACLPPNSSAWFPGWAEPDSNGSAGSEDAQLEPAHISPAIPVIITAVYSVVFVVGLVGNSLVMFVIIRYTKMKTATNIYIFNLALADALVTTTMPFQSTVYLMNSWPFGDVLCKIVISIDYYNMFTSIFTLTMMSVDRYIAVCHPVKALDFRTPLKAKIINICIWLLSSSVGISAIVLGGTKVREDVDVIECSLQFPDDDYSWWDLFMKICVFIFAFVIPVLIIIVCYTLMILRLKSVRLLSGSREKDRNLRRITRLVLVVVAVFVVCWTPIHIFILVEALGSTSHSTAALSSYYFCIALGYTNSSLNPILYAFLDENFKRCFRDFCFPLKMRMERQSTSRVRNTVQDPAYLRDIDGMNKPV
Chain of CANNABINOID RECEPTOR CB1 (P21554 whole entry): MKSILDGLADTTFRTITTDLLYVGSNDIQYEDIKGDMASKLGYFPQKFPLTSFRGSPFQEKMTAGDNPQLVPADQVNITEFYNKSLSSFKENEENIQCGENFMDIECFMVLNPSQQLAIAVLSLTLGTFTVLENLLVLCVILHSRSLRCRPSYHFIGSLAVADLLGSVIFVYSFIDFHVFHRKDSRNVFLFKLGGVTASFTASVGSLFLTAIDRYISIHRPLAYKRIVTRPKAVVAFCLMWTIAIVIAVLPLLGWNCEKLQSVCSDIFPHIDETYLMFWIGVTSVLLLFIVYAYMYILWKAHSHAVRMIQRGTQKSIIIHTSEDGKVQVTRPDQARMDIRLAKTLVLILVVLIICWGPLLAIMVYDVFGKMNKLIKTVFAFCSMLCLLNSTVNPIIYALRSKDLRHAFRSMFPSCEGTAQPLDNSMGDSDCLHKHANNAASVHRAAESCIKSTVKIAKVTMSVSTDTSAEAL
Chain of ANDROGEN RECEPTOR (P10275 whole entry): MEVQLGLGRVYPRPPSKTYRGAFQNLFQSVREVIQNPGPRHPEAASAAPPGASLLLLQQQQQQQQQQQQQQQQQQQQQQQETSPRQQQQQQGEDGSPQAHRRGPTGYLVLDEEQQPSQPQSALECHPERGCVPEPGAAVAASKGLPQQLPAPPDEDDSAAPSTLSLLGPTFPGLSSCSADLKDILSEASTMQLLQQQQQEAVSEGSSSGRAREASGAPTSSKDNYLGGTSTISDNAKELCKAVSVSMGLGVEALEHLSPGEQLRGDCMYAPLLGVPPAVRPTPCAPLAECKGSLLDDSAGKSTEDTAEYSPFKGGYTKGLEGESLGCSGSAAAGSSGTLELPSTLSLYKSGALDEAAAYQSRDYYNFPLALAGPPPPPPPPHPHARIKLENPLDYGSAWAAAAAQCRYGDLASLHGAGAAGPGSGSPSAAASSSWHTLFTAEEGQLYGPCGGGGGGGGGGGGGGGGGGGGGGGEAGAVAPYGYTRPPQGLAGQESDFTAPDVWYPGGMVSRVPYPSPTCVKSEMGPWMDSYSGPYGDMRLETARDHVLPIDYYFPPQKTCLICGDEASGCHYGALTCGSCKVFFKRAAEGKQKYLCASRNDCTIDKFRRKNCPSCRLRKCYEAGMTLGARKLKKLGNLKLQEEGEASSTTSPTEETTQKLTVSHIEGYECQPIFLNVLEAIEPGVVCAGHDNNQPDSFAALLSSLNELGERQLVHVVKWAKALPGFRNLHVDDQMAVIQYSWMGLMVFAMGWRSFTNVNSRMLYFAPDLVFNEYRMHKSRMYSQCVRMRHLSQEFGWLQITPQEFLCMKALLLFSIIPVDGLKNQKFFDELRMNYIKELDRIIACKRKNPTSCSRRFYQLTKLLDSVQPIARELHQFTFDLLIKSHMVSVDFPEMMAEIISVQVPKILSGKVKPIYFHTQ
Chain of ANGIOTENSIN II RECEPTOR 1 (P30556 whole entry): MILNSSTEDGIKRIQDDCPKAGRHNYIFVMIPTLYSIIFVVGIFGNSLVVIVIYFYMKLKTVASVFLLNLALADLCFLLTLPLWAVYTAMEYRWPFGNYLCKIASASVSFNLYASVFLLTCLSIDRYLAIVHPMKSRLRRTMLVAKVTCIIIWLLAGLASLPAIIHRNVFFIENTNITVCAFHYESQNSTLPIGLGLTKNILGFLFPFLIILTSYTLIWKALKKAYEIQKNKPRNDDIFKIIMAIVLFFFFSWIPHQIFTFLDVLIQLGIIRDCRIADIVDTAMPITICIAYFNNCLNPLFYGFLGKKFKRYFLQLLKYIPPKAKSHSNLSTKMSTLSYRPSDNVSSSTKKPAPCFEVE
Chain of UniProt P08588 (P08588 whole entry): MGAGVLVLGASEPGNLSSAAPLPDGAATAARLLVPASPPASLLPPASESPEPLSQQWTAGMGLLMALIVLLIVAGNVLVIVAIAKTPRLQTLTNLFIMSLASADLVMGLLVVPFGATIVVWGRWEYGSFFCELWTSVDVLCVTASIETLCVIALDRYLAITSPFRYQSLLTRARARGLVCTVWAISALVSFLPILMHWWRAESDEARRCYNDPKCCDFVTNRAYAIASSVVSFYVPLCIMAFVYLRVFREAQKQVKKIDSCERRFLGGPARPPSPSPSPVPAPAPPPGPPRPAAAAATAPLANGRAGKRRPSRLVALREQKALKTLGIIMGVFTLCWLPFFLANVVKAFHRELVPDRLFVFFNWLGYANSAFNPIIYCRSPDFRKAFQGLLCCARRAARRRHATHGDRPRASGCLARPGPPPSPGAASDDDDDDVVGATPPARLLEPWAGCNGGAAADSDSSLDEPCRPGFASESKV
Chain of ADENOSINE A3 RECEPTOR (P0DMS8 whole entry): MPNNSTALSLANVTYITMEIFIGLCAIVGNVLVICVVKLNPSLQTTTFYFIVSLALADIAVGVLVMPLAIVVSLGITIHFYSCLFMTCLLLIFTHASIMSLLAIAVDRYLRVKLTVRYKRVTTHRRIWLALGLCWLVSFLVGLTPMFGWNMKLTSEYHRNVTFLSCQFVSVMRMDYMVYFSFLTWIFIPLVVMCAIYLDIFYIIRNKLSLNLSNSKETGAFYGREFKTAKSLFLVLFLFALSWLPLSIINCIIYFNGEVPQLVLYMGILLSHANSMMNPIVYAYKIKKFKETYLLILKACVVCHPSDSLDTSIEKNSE
Chain of 5HT2A (P28223 whole entry): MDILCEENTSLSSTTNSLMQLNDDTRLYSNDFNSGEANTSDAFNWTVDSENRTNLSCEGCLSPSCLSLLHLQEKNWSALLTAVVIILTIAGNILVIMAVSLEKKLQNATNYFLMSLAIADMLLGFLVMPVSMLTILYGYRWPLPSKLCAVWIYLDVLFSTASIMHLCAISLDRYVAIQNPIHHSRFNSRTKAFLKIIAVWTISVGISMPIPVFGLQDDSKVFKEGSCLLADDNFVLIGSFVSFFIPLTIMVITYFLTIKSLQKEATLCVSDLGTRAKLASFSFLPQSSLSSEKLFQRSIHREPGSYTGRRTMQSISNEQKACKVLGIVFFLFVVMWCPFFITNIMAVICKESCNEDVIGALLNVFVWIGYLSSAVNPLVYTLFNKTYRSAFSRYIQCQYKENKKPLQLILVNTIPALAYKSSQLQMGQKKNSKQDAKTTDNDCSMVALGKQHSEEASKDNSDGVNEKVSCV
Chain of HISTAMINE H2 RECEPTOR (P25021 whole entry): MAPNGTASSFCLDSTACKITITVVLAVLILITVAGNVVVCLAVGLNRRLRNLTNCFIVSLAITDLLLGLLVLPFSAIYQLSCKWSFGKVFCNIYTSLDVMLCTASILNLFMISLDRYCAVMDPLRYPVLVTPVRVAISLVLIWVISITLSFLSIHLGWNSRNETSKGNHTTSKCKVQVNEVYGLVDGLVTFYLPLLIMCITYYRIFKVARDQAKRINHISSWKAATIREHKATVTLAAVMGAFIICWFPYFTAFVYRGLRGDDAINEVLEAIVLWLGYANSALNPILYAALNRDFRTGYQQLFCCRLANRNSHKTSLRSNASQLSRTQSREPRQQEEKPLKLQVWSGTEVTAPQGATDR
Chain of 5HT3 (P46098 24-478): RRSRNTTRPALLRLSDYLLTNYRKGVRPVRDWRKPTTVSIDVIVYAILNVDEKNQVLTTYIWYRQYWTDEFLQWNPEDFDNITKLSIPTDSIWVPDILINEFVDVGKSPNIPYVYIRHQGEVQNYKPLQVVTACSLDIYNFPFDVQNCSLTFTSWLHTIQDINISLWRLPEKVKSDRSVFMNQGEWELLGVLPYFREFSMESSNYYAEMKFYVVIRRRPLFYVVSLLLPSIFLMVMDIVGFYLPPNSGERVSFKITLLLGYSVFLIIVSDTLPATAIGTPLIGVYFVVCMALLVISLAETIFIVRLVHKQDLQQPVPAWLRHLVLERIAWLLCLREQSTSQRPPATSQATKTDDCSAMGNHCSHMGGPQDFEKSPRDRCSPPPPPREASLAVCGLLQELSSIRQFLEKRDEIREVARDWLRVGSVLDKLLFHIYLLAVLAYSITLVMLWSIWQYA
Chain of UniProt P23975 (P23975 whole entry): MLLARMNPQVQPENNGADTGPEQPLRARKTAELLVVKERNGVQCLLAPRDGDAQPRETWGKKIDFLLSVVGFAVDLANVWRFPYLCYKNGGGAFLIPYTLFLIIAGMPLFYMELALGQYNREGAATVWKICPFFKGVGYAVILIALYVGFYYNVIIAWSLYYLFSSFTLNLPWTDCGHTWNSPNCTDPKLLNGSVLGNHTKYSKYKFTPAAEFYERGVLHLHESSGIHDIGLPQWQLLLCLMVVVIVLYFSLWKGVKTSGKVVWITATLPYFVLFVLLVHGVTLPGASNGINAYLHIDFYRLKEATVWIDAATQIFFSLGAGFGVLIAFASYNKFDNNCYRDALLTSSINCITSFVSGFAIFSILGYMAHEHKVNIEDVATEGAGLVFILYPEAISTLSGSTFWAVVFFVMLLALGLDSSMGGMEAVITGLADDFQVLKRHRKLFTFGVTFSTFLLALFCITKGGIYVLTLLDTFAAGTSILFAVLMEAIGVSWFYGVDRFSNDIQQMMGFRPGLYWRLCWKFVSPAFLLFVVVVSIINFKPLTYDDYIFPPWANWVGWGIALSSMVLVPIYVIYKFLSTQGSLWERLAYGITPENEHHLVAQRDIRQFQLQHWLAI

| SMILES | interaction with the seven pivotal cytochrome P450 isoenzymes [1] | inhibition at 10 µM (HISTAMINE H3 RECEPTOR) | inhibition at 10 µM (HISTAMINE H1 RECEPTOR) | inhibition at 10 µM (SEROTONIN TRANSPORTER) | inhibition at 10 µM (5HT1A) | inhibition at 10 µM (5HT3) | inhibition at 10 µM (β1-ADRENOCEPTOR) | inhibition at 10 µM (ANDROGEN RECEPTOR) | inhibition at 10 µM (alpha1A-ADRENOCEPTOR) | inhibition at 10 µM (CANNABINOID RECEPTOR CB1) | inhibition at 10 µM [2] | inhibition at 10 µM (κ OPIOID RECEPTOR) | inhibition at 10 µM (ESTROGEN RECEPTOR α) | inhibition at 10 µM (MUSCARINIC RECEPTOR M2) | inhibition at 10 µM (µ OPIOID RECEPTOR) | inhibition at 10 µM [3] | inhibition at 10 µM (PROSTAGLANDIN F RECEPTOR) | inhibition at 10 µM (5HT2B) | inhibition at 10 µM (β2-ADRENOCEPTOR) | inhibition at 10 µM [4] | other results |
| --- | --- | --- | --- | --- | --- | --- | --- | --- | --- | --- | --- | --- | --- | --- | --- | --- | --- | --- | --- | --- | --- |
| Cc1nnc(-c2ccc(OCCCOc3ccc(CCC(=O)O)c(F)c3)c(F)c2)s1 [Compound 1] | did not echibit any relevant; also recorded: did not exhibit any relevant activity | 4.9% | -7% | 6.9% | -20.6% | -4.7% | 0.7% | -1.6% | 1.7% | 9.3% | -3.3% | 10.9% | 13.6% | 4.2% | -6.9% | -7.5% | 0% | 6.6% | 4% | -3.7% | inhibition at 10 µM (ADENOSINE A3 RECEPTOR): 9%; inhibition at 10 µM (HISTAMINE H2 RECEPTOR): 10.9%; inhibition at 10 µM (5HT2A): -3.3%; inhibition at 10 µM (MUSCARINIC RECEPTOR M1): 8.4%; inhibition at 10 µM (α2A-ADRENOCEPTOR): -3.2%; inhibition at 10 µM (PPARγ): 95% |
| COc1ccc(Oc2ccc3ncn(CCOc4ccc(CCC(=O)O)cc4)c3c2)cc1 [Compound 2] | did not echibit any relevant; also recorded: did not exhibit any relevant activity | 2.1% | -6.7% | 6.4% | 22.7% | 0.3% | 6.9% | 3.1% | 2.9% | -3.2% | 0.7% | -0.7% | -1.8% | 6.9% | 6.2% | -6.2% | 4.6% | 7.1% | 7% | 0.9% | inhibition at 10 µM (ADENOSINE A3 RECEPTOR): 17.1%; inhibition at 10 µM (HISTAMINE H2 RECEPTOR): -3.1%; inhibition at 10 µM (5HT2A): -8.8%; inhibition at 10 µM (MUSCARINIC RECEPTOR M1): -0.2%; inhibition at 10 µM (α2A-ADRENOCEPTOR): 4.9%; inhibition at 10 µM (PPARγ): 89.6% |
